Article PMC11157767 (Molecular Cancer, 2024)
Where “and” joins values, the source holds several entries; their conditions need not be identical. Equal entries are not always repeated. Where two headings read alike, the source gives them in different places.

Experiments:
[1] = Plasma pharmacokinetics in CD-1 nude mice (NCA); assay type: in vivo, mouse; settings: for AUC / AUC(0-inf) / AUC(0-t) / CL/F / Cmax / Tmax / half-life / k el / Vd/F: CD-1 nude, mouse; for AUC: plasma, 25 mg/kg, read-out: total plasma AUC; for AUC(0-inf) / AUC(0-t) / CL/F / Cmax / Tmax / half-life / k el / Vd/F / Clast / Tlast: Plasma, NCA estimate; for Vd/F: read-out: Vz/F
Method: (§1) Fig. 2 TFG-MET-driven mouse model and pharmacokinetic profiles of MET inhibitors. a Schematic illustrating the method and utilized vectors to induce CRISPR/Cas9-mediated Trp53 deletion and TFG-MET overexpression following in utero electroporations. b H&E staining and Immunohistochemical analysis of a tumor generated by in utero electroporation, visualized by the HA-tag of TFG-MET. […] Three mice were analyzed per compound and time point. Error bars indicate the standard deviation. Dashed rectangles indicate time windows of radiation in the following preclinical allograft study
(§2) See Methods – Pharmacokinetics section for a description of abbreviations.

TFG-MET allograft tumors = assay: TFG-MET allograft preclinical trial in CD1 mice, Survival cohort (survival, BLI, body weight); assay type: in vivo, mouse; settings: for BLI signal, individual mice: Murine allografts
Method: All treatments started 1 week after transplantation. Radio therapy was administered for 6 days, delivering 12 Gy total. Compound treatment was continued for 84 days. […] N = 8 (vehicle arms) or n = 10 (compound-treated arms), respectively. […] First row is depicted in another intensity scale to visualize tumors in all mice. The depicted scale bar indicates the range from 5x10^5-1x10^7 photons/sec/cm^2/sr.
Survival, body weight and tumor burden data from TFG-MET allograft-bearing mice. a,Schematic illustrating the preliminary in vivo study to determine the efficacy of RT alone. b, Survival curve of mice depicted in a. […] Each line represents one mouse. The ends of lines indicate the onset of neurological symptoms and thereby the endpoints.
Bioluminescence signals of in vivo trials.

TRIM24-MET-i cells = assay: 3-day dose-response assay, TRIM24-MET-i cells; assay type: cell-based; settings: Homo sapiens
[2] = Brain pharmacokinetics in CD-1 nude mice (NCA); assay type: in vivo, mouse; settings: for maximal concentration of unbound drug in the brain: estimated with Fu,b; for concentration reached in brain tissues: total drug
Method: as §1, §2

[3] = system: murine TFG-MET tumor cells; settings: 7 days; RT 0Gy - 8Gy
Method: For both compounds 1 µM was used as positive control.
Compound concentrations comprised 10µM and 9 serial 1:3 dilutions in 4 replicates each and radiation doses ranged from 0Gy – 8Gy. […] Tested compound concentrations comprised 10 µM and 9 serial 1:3 dilutions in 4 replicates each. ZIP synergy scores were calculated based on cell numbers according to the CellTiter-Glo Assay by using the synergyfinder tool.

[4] = cited from earlier work
[5] = CD-1 nude, mouse, 25 mg/kg, Brain, NCA estimate
[6] = CD-1 nude, mouse, Brain, NCA estimate
[7] = CD-1 nude, mouse, Brain, NCA estimate, read-out: Kp,last

## CNC(=O)c1ccc(-c2cnc3ncc(Cc4ccc5ncccc5c4)n3n2)cc1F [Capmatinib]
[1]; CD1 nude mice
  plasma concentration at 16 hours post-dose: below the detection limit
[1]
  AUC: 16400 ng·h/mL
  AUC(0-inf): 16400 ng·h/mL
  AUC(0-t): 14900 ng·h/mL
  CL/F: 25.3 mL/min/kg
  Cmax: 6200 ng/mL
  Tmax: 0.5 h
  half-life: 2.27 h
  k el: 8.47e-05 s⁻¹
  Vd/F: 4.99 L/kg
  Clast: 540 ng/mL
  Tlast: 8 h
TFG-MET allograft tumors; day 7, drug + RT
  BLI signal, individual mice: 2.90E+08 and 3.10E+06 and 2.30E+07 and 4.30E+06 and 9.70E+05 and 1.20E+06 and 8.80E+06 and 3.20E+06 and 7.40E+06 and 6.80E+07
TFG-MET allograft tumors; day 7, drug alone
  BLI signal, individual mice: 2.90E+06 and 5.20E+06 and 4.80E+06 and 3.30E+07
TFG-MET allograft tumors; day 10, drug + RT
  BLI signal, individual mice: 1.80E+08 and 2.30E+06 and 4.90E+07 and 1.20E+07 and 6.70E+06 and 5.70E+05 and 1.10E+07 and 1.60E+06 and 6.20E+06 and 3.60E+07
TFG-MET allograft tumors; day 10, drug alone
  BLI signal, individual mice: 2.30E+06 and 7.80E+06 and 1.50E+07 and 6.40E+07
TFG-MET allograft tumors; day 14, drug + RT
  BLI signal, individual mice: 2.10E+08 and 3.20E+06 and 6.50E+07 and 1.30E+07 and 3.10E+05 and 1.60E+05 and 7.60E+06 and 6.60E+05 and 1.20E+08
TFG-MET allograft tumors; day 14, drug alone
  BLI signal, individual mice: 8.30E+06 and 6.10E+07 and 2.00E+07 and 6.20E+07
TFG-MET allograft tumors; day 21, drug + RT
  BLI signal, individual mice: 1.10E+05 and 1.60E+05 and 1.30E+05 and 1.50E+07 and 5.10E+06 and 3.60E+06 and 6.20E+06 and 1.40E+05 and 9.20E+06
TFG-MET allograft tumors; day 21, drug alone
  BLI signal, individual mice: 8.80E+07 and 2.30E+08 and 7.60E+07 and 2.10E+08
TFG-MET allograft tumors; day 28, drug + RT
  BLI signal, individual mice: 1.10E+05 and 1.60E+05 and 2.00E+05 and 2.20E+08 and 4.30E+07 and 3.30E+07 and 5.10E+07 and 1.50E+05 and 5.80E+06
TFG-MET allograft tumors; day 28, drug alone
  BLI signal, individual mice: 5.10E+08 and 5.20E+08 and 2.60E+08 and 1.90E+08
TFG-MET allograft tumors; day 35, drug + RT
  BLI signal, individual mice: 1.10E+05 and 1.50E+05 and 1.40E+05 and 9.90E+05 and 1.00E+07
TFG-MET allograft tumors; day 42, drug + RT
  BLI signal, individual mice: 1.20E+05 and 1.30E+05 and 1.40E+05 and 2.50E+06 and 4.40E+07
TFG-MET allograft tumors; day 49, drug + RT
  BLI signal, individual mice: 1.30E+05 and 1.20E+05 and 7.40E+06
TFG-MET allograft tumors; day 56, drug + RT
  BLI signal, individual mice: 1.00E+05 and 1.40E+05 and 1.50E+05 and 6.60E+07 and 1.20E+08
TFG-MET allograft tumors; day 63, drug + RT
  BLI signal, individual mice: 1.10E+05 and 2.00E+05 and 1.40E+05 and 1.90E+08
TFG-MET allograft tumors; day 70, drug + RT
  BLI signal, individual mice: 1.10E+05 and 1.20E+05
TFG-MET allograft tumors; day 77, drug + RT
  BLI signal, individual mice: 1.02E+05 and 1.30E+05 and 1.10E+05
TFG-MET allograft tumors; day 84, drug + RT
  BLI signal, individual mice: 1.06E+05 and 9.93E+04 and 1.20E+05
TFG-MET allograft tumors; day 91, drug + RT
  BLI signal, individual mice: 9.34E+04 and 1.44E+05 and 1.14E+05
TFG-MET allograft tumors; capmatinib + RT (12 Gy)
  animals with reduction of tumor burden by week 3 (BLI): 8/10
TFG-MET allograft tumors; capmatinib + RT (12 Gy), Survival cohort
  increase of survival rate: 3 fold
TFG-MET allograft tumors; capmatinib + RT arm, n = 10
  mice reaching 140 days after transplantation without residual tumor: Three
TRIM24-MET-i cells; 72 h, TRIM24-MET-i, 3-day dose response, read-out: EC90 Total
  EC90: 5.93 nM
TRIM24-MET-i cells; TRIM24-MET-i, total value multiplied with unbound fraction in culture media, read-out: EC90 Unbound
  EC90: 4.18 nM
[2]; Brain, NCA estimate
  Clast: 42.4 ng/mL
  Tlast: 8 h
[2]; CD1 nude mice
  brain concentration at 16 hours post-dose: below the detection limit
  maximal concentration of unbound drug in the brain: ~ 103 nM
  concentration reached in brain tissues: > 1000 nM
[2]; [5]
  AUC(0-inf): 1260 ng·h/mL
  CL/F: 330 mL/min/kg
  half-life: 2.34 h
  k el: 8.22e-05 s⁻¹
[2]; CD-1 nude, mouse, 25 mg/kg, Brain, NCA estimate, read-out: Kp,inf
  Kp: 0.0768
[2]; CD-1 nude, mouse, 25 mg/kg, Brain, NCA estimate, read-out: Vz/F
  Vd/F: 67 L/kg
[2]; [6]
  AUC(0-t): 1140 ng·h/mL
  Cmax: 486 ng/mL
  Tmax: 0.5 h
[2]; [7]
  Kp: 0.0765
[2]; mouse, in vivo
  time after administration with higher effective exposure in the murine brain than crizotinib: up to 8 hours
[3]
  combination effect with RT (ZIP synergy model): additive effect with a trend towards synergy
[4]; humans, 400 mg BID orally
  mean steady total plasma AUC: 17,300 hr-ng/mL

## C[C@@H](Oc1cc(-c2cnn(C3CCNCC3)c2)cnc1N)c1c(Cl)ccc(F)c1Cl [Crizotinib]
[1]; CD1 nude mice, post dose, brain and plasma not distinguished
  time of reaching Cmax: 4 h
[1]
  AUC: 64700 ng·h/mL
  AUC(0-inf): 64700 ng·h/mL
  AUC(0-t): 42400 ng·h/mL
  CL/F: 25.8 mL/min/kg
  Cmax: 5040 ng/mL
  Tmax: 1 h
  half-life: 10.3 h
  k el: 1.86e-05 s⁻¹
  Vd/F: 23 L/kg
  Clast: 1670 ng/mL
  Tlast: 16 h
TFG-MET allograft tumors; day 7, drug + RT
  BLI signal, individual mice: 3.20E+07 and 3.90E+07 and 3.50E+08 and 1.10E+08 and 1.40E+07 and 8.30E+05 and 5.70E+06 and 1.70E+07 and 6.90E+05 and 4.00E+06
TFG-MET allograft tumors; day 7, drug alone
  BLI signal, individual mice: 8.40E+06 and 1.40E+07 and 3.90E+08 and 2.00E+06 and 1.50E+07 and 3.90E+06 and 6.00E+06 and 4.10E+06 and 1.20E+06 and 8.20E+06
TFG-MET allograft tumors; day 10, drug + RT
  BLI signal, individual mice: 3.00E+07 and 4.60E+07 and 1.60E+08 and 1.80E+08 and 5.10E+07 and 1.20E+06 and 1.50E+07 and 6.00E+05 and 7.00E+06
TFG-MET allograft tumors; day 10, drug alone
  BLI signal, individual mice: 2.30E+07 and 6.50E+07 and 3.70E+08 and 3.10E+06 and 5.60E+07 and 6.20E+06 and 3.30E+07 and 1.30E+07 and 3.50E+06 and 2.70E+06
TFG-MET allograft tumors; day 14, drug + RT
  BLI signal, individual mice: 1.90E+06 and 9.10E+07 and 9.70E+07 and 7.90E+07 and 7.60E+05 and 1.70E+08 and 5.90E+08 and 6.70E+05 and 3.10E+07
TFG-MET allograft tumors; day 14, drug alone
  BLI signal, individual mice: 5.20E+07 and 1.80E+09 and 3.60E+07 and 3.20E+08 and 6.50E+07 and 1.60E+08 and 1.70E+07 and 1.10E+07 and 2.00E+07
TFG-MET allograft tumors; day 21, drug + RT
  BLI signal, individual mice: 1.00E+05 and 5.60E+06 and 1.60E+07
TFG-MET allograft tumors; day 21, drug alone
  BLI signal, individual mice: 3.40E+07 and 2.10E+08 and 2.60E+08 and 2.60E+07 and 1.40E+08 and 8.10E+07
TFG-MET allograft tumors; day 28, drug + RT
  BLI signal, individual mice: 1.20E+08 and 2.10E+07
TFG-MET allograft tumors; day 28, drug alone
  BLI signal, individual mice: 5.90E+07 and 2.20E+08 and 4.40E+08 and 3.00E+08
TFG-MET allograft tumors; day 35, drug + RT
  BLI signal, individual mice: 1.30E+05 and 1.70E+07
TFG-MET allograft tumors; day 35, drug alone
  BLI signal, individual mice: 1.00E+07 and 8.70E+08 and 6.50E+08
TFG-MET allograft tumors; day 42, drug + RT
  BLI signal, individual mice: 1.30E+05
TFG-MET allograft tumors; day 42, drug alone
  BLI signal, individual mice: 1.00E+07 and 1.20E+09
TFG-MET allograft tumors; day 49, drug alone
  BLI signal, individual mice: 1.90E+06
TFG-MET allograft tumors; day 56, drug + RT
  BLI signal, individual mice: 1.30E+05
TFG-MET allograft tumors; day 56, drug alone
  BLI signal, individual mice: 2.20E+06
TFG-MET allograft tumors; day 63, drug alone
  BLI signal, individual mice: 1.90E+07
TFG-MET allograft tumors; day 70, drug + RT
  BLI signal, individual mice: 1.00E+05
TFG-MET allograft tumors; day 70, drug alone
  BLI signal, individual mice: 2.30E+07
TFG-MET allograft tumors; day 84, drug + RT
  BLI signal, individual mice: 1.26E+05
TFG-MET allograft tumors; day 91, drug alone
  BLI signal, individual mice: 1.06E+05
TRIM24-MET-i cells; 72 h, read-out: EC50 Total
  EC50: 18.1 nM
TRIM24-MET-i cells; 72 h, read-out: EC90 Total
  EC90: 322 nM
TRIM24-MET-i cells; read-out: EC50 Unbound
  EC50: 11.1 nM
TRIM24-MET-i cells; read-out: EC90 Unbound
  EC90: 198 nM
[2]; Brain, NCA estimate
  Clast: 453 ng/mL
  Tlast: 16 h
[2]; CD1 nude mice
  maximal concentration of unbound drug in the brain: ~ 11 nM
  concentration reached in brain tissues: > 1000 nM
[2]; [6]
  AUC(0-t): 6570 ng·h/mL
  Cmax: 453 ng/mL
  Tmax: 4 h
[2]; [7]
  Kp: 0.155
[3]
  combination effect with RT (ZIP synergy model): additive effect with a trend towards synergy
[4]; pediatric solid tumors, maximum tolerated dose 280 mg/m^2 BID
  mean steady total plasma AUC: 6,990 hr-ng/mL
